Assay results reported in US9758527B2, “Cyclohexene derivative, preparation method therefor, and pharmaceutical composition for preventing or treating metabolic diseases, containing same as active ingredient” (HYUNDAI PHARM CO., LTD., priority 2014, dated 2017).
Read-outs that look alike come from different tables or passages of the source.

Molecular target: T1, G protein-coupled receptor 119 (GPR-119) (Mesocricetus auratus, UniProt A0A1U8CD06)
T1 construct: hamster-derived β-cells containing G protein-coupled receptor 119 (GPR-119), HIT-T15 cells; host or cells: HIT-T15 (hamster pancreatic β-cells)
T1 sequence (A0A1U8CD06 1-334): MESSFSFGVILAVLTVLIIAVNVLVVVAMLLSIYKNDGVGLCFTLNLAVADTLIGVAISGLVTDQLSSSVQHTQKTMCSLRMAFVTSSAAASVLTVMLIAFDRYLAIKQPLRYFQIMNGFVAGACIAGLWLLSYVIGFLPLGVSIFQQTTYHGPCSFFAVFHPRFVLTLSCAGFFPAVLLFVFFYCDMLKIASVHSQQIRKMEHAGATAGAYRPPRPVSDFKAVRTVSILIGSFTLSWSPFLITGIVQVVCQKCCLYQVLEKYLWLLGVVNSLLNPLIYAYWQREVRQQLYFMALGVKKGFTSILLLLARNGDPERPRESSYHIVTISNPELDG
Assay: Evaluation of cAMP activity in HIT-T15 cells (HTRF cAMP dynamic kit)
Format: cell-based, hamster
Settings: cAMP activation
Method in brief: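 HIT-T15 cells, 60,000/well, treated next day with compound at six concentrations ([…]) for 1 h at 37° C. Lysate cAMP quantified by HTRF competitive immunoassay (D2-cAMP, cryptate anti-cAMP); activity taken as change in FRET signal relative to DMSO.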

[1] = 1 h at 37° C., six concentrations, read-out: EC50

Compound | EC50 [1] [nM] | EC50 (read-out: EC50 value) [nM] | EC50 (EC50 (nM), 1 h at 37° C., six concentrations) [nM] | EC50 (EC50 value) [nM]
CCc1cnc(N2CCC(COc3ccc(C4=CCC(C(=O)N5CCC(N6CCOCC6)CC5)CC4)cc3)CC2)nc1 (stereo not shown) [Example 220, (4-(4-((1-(5-ethylpyrimidin-2-yl)piperidin-4-yl)methoxy)phenyl)cyclohex-3-enyl)(4-morpholinopiperidin-1-yl)methanone] | 40 | ≤ 50 |  | 
CON(C)C(=O)C1CC=C(c2ccc(OCC3CCN(C(=O)OC(C)(C)C)CC3)cc2)CC1 (stereo not shown) [Example 223, tert-butyl 4-((4-(4-(methoxy(methyl)carbamoyl)cyclohex-1-enyl)phenoxy)methyl)piperidine-1-carboxylate] | 25 | ≤ 50 |  | 
CC(C)(C)OC(=O)N1CCC(COc2ccc(C3=CCC(C(=O)N4CC=CC4)CC3)cc2)CC1 (stereo not shown) [Example 224, tert-butyl 4-((4-(4-(2,5-dihydro-1H-pyrrole-1-carbonyl)cyclohex-1-enyl)phenoxy)methyl)piperidine-1-carboxylate] | 38 | ≤ 50 |  | 
CC(C)(C)OC(=O)N1CCC(COc2ccc(C3=CCC(C(=O)N4CCC(O)CC4)CC3)cc2)CC1 (stereo not shown) [Example 225, tert-butyl 4-((4-(4-(4-hydroxypiperidine-1-carbonyl)cyclohex-1-enyl)phenoxy)methyl)piperidine-1-carboxylate] | 22 | ≤ 50 |  | 
CC(C)(C)OC(=O)N1CCC(COc2ccc(C3=CCC(C(=O)N4CCC(CO)CC4)CC3)cc2)CC1 (stereo not shown) [Example 226, tert-butyl 4-((4-(4-(4-(hydroxymethyl)piperidine-1-carbonyl)cyclohex-1-enyl)phenoxy)methyl)piperidine-1-carboxylate] | 14 | ≤ 50 |  | 
CCc1cnc(N2CCC(COc3ccc(C4=CCC(C(=O)N5CCC6(C=Cc7ccccc76)CC5)CC4)cc3)CC2)nc1 (stereo not shown) [Example 228, (4-(4-((1-(5-ethylpyrimidin-2-yl)piperidin-4-yl)methoxy)phenyl)cyclohex-3-enyl)(spiro[indene-1,4′-piperidin]-1′-yl)methanone] | 8 | ≤ 50 |  | 
CCc1cnc(N2CCC(COc3ccc(C4=CCC(C(=O)N5CCC6(CC5)OCCO6)CC4)cc3)CC2)nc1 (stereo not shown) [Example 229, (4-(4-((1-(5-ethylpyrimidin-2-yl)piperidin-4-yl)methoxy)phenyl)cyclohex-3-enyl)(1,4-dioxa-8-azaspiro[4.5]decan-8-yl)methanone] |  |  | 11 | ≤ 50
CCc1cnc(N2CCC(COc3ccc(C4=CCC(C(=O)N5CC=CC5)CC4)cc3)CC2)nc1 (stereo not shown) [Example 235, (2,5-dihydro-1H-pyrrol-1-yl)(4-(4-((1-(5-ethylpyrimidin-2-yl)piperidin-4-yl)methoxy)phenyl)cyclohex-3-enyl)methanone] | 24 |  |  | 
CN(CCO)C(=O)C1CC=C(c2ccc(OCC3CCN(C(=O)OC(C)(C)C)CC3)cc2)CC1 (stereo not shown) [Example 236, tert-butyl 4-((4-(4-((2-hydroxyethyl)(methyl)carbamoyl)cyclohex-1-enyl)phenoxy)methyl)piperidine-1-carboxylate] | 14 | ≤ 50 |  | 
CC(C)(C)OC(=O)N1CCC(COc2ccc(C3=CCC(C(=O)N4CCc5ccccc5C4)CC3)cc2)CC1 (stereo not shown) [Example 239, tert-butyl 4-((4-(4-(1,2,3,4-tetrahydroisoquinoline-2-carbonyl)cyclohex-1-enyl)phenoxy)methyl)piperidine-1-carboxylate] | 22 |  |  | 
CCc1cnc(N2CCC(COc3ccc(C4=CCC(C(=O)N(C)CCCO)CC4)cc3)CC2)nc1 (stereo not shown) [Example 242, 4-(4-((1-(5-ethylpyrimidin-2-yl)piperidin-4-yl)methoxy)phenyl)-N-(3-hydroxypropyl)-N-methylcyclohex-3-enecarboxamide] | 21 | ≤ 50 |  | 
CC(C)c1noc(N2CCC(COc3ccc(C4=CCC(C(=O)N(C)CCCO)CC4)cc3)CC2)n1 (stereo not shown) [Example 243, N-(3-hydroxypropyl)-4-(4-((1-(3-isopropyl-1,2,4-oxadiazol-5-yl)piperidin-4-yl)methoxy)phenyl)-N-methylcyclohex-3-enecarboxamide] | 30 | ≤ 50 |  | 
